Where a SMILES comes first, the peptide text is derived from it. Bridges are numbered along the chain shown (N, C = ends). The star is where a group is joined. Cbz = O=C(OCc1ccccc1)*
Experiments:
[1] = tested on: RAW 264.7 culture; assay: Anti-osteoclastogenesis: cathespin K expression by real-time PCR; type: cell-based; details: MG132 released from cement; 5-day TNFalpha treatment
Description: The anti-osteoclastogenesis of MG132-loaded cement was tested after a 5-day treatment of TNFalpha in RAW 264.7 culture. In this case, expression of the marker gene cathespin K was measured by real-time PCR.

[2] = tested on: pre-osteoclast RAW 264.7 cell culture; assay: TRAP+ cell staining for osteoclast activation with WP9QY-loaded cement; type: cell-based; details: WP9QY released from MWCNT/CPC or CPC; 5 days; TNFalpha stimulated; FIG. 6
From the text: The MWCNT/CPC or CPC alone were loaded with WP9QY ([…], [SEQ ID NO: 1]), which is a peptide compound designed to compete ligand binding of RANK and to inhibit osteoclastogensis. The WP9QY peptide has a sequence of H-[…]OH [SEQ ID NO: 1], and was developed based on a structural analysis of the ligand binding site on TNF receptor 1 and RANK to inhibit osteoclast-activating. This cyclic peptide mimics the most critical tumor necrosis factor (TNF) recognition loop on TNF receptor 1, and prevents interaction of TNF with its receptor. The peptide was added directly to the cement paste to form the bone filler composition. Briefly, 100 μL of 1 mg/mL WP9QY was added into 0.5 mL DI water when mixing with 1 g of cement powder.
The cement pellet was washed with ethanol and left in a pre-osteoclast RAW 264.7 cell culture treated to trigger cell differentiation. To measure anti-osteoclast maturation of WP9QY released from the cement, the culture was stained for TRAP+ (osteoclast-like) cells after 5 days. TRAP+ cells are a marker for active osteoclasts after stimulated by the cytokine TNFalpha. The results, shown in FIG. 6, indicate that both composites can carry and release WP9QY.

| Compound | osteoclast maturation (cathespin K expression) [1] | osteoclast activation (TRAP+ cells) [2] |
| --- | --- | --- |
| CC(C)C[C@@H](C=O)NC(=O)[C@H](CC(C)C)NC(=O)[C@H](CC(C)C)NC(=O)OCc1ccccc1 [MG132] (Cbz-Leu-Leu-Leu-aldehyde) | osteoclast maturation can be inhibited | – |
| H-Tyr-Cys-Trp-Ser-Gln-Tyr-Leu-Cys-Tyr-OH (H-YCWSQYLCY-OH; disulfide 2-8 (inferred)) [WP9QY] | – | osteoclast activation was inhibited |

Source: patent US20160030631A1, “Injectable Biodegradable Bone Matrix for Multiple Myeloma Lesion Augmentation and Osteoporosis” (THE UNIVERSITY OF TOLEDO, priority 2013, published 2016)
